Where two headings read alike, the source gives them in different places.
Columns and labels:
[1] = target: RORγ-LBD (Homo sapiens (Human), UniProt P51449); assay: LanthaScreen TR-FRET screening of RORγ-LBD / co-activator (Fluorescein-D22) interaction
[2] = system: Th17 cells; assay: Differentiation inhibition experiments on Th17 cells (IL-17A content in supernatant by ELISA); type: cell-based, C57 mouse; conditions: 1 μM compound; differentiation of mouse naïve CD4+ T cells to Th17, IL-17A ELISA; read-out: Inhibition Rate (1 μM)
Method: 5 μg/mL mouse CD3 antibody (purchased from BD) was coated on a 96-well plate (37° C., 2-6 hours) and stored for future use. C57 mouse lymph gland naïve CD4 positive T cells were separated using CD4+ T cell isolation kit II (purchased from MACS), and were inoculated to the coated 96-well plate at 5×10^5 cells/well/100 μL. The test sample was gradient diluted with RMPI-1640 culture medium (Gibco, 22440), and was made to be 4 times of the final concentration (starting from 1 μM, 10 times dilution, setting 6 drug concentrations). The diluted test sample was added at 50 μL/well to the test well inoculated with cells. To each of the positive and negative control wells was added 50 μL RMPI-1640 culture medium. To each of the test wells and the positive control wells was further added 50 μL mixed solution of activators (20 ug/mL mouse CD28 antibody (purchased from BD); 40 ug/mL mouse IL-4 antibody (purchased from BD); 40 ug/mL mouse IFNγ antibody (purchased from BD); 4 ng/mL mouse TGF-β1 (purchased from R&D); 200 ng/mL mouse IL-6 (purchased from R&D); 20 ng/mL mouse IL-23 (purchased from R&D)) having a 4-fold final concentration; to the negative control well was added 50 μL RMPI-1640 culture medium. The loaded 96-well plate was placed in an incubator at 37° C., 5% CO2 and was cultured for 66 hours, followed by adding to each well 50 uL mixed solution of PMA (purchased from Sigma, working concentration: 50 ng/mL) and Ionomycin (purchased from Sigma, working concentration: 1 ug/mL), and culturing at 37° C. for another 6 hours. After the culture was completed, a cell culture supernatant was taken, and the IL-17A content in the supernatant was determined using mouse IL-17A ELISA kit (purchased from Dakewe), and the inhibition rate and the IC50 value were calculated. The specific operation followed the kit specification (see below):
(1) Determining the number of required strips according to the number of the test wells (blank and standard); taking out the Washing buffer (50×) and the ready-to-use solution from the kit 20 min in advance to balance to room temperature.
(2) Loading samples: adding diluted Cytokine standard to the standard well at 100 μL/well, adding the sample to the sample well at 100 μL/well, setting a blank well, in which Dilution buffer R (1×) was used instead of the sample and the standard.
(3) Adding testing antibody: adding diluted Biotinylated antibody at 50 μL/well; covering with a sealing film after mixing uniformly, and incubating at 37° C. for 90 min.
(4) Washing the plate: deducting the liquid in the well, adding 1× washing buffer at 300 μL/well; maintain for 1 min, then discarding the liquid in the well; repeating 4 times, each time deducting to dryness on filter pater.
(5) Adding enzyme: adding diluted Streptavidin-HRP at 100 μL/well; covering with a sealing film, and incubating at 37° C. for 30 min.
(6) Washing the plate: repeating […].
(7) Color development: adding TMB at 100 μL/well, incubating at 37° C. in a dark place for 5-30 min, and determining to terminate the reaction according to the depth of the color in the well (dark blue). Normally, a good effect can be achieved by color development for 10-20 min.
(8) Terminating the reaction: rapidly adding a stop solution at 100 μL/well to terminate the reaction.
Reading the plate: 10 min after termination, reading the value using a measurement wavelength of 450 nm.

[3] = read-out: IC50 Values, TR-FRET, 2 nM RORγ-LBD, 150 nM Fluorescein-D22 co-activator

Chain of RORγ-LBD (P51449 269-508): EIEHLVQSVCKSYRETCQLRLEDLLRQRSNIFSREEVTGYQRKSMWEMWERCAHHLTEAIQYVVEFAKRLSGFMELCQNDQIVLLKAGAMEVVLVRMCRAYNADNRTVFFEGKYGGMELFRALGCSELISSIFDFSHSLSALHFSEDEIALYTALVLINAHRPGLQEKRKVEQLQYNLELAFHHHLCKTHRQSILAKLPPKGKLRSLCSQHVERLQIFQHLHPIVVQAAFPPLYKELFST

O=C(O)c1ccc(N2C(=O)/C(=C/c3c(Cl)cccc3C3CC3)c3c(F)cccc32)cc1 [Example 16B, (cis)-4-(3-(2-chloro-6-cyclopropyl-benzylidene)-4-fluoro-indolin-2-on-1-yl)-benzoic acid]
IC50 [1, 3]: < 100 nM
inhibition at 1 µM [2]: > 50%

Cc1cccc2c1/C(=C/c1c(Cl)cccc1Cl)C(=O)N2c1ccc(C(=O)O)c(O)c1 [Example 4, (trans)-4-(3-(2,6-dichloro-benzylidene)-4-methylindolin-2-on-1-yl)-2-hydroxybenzoic acid]
IC50 [1, 3]: < 100 nM
inhibition at 1 µM [2]: > 50%

O=C(O)c1ccc(N2C(=O)/C(=C\c3c(Cl)cccc3Cl)c3c(F)cccc32)cc1 [Example 15A, (trans)-4-(3-(2,6-dichloro-benzylidene)-4-fluoro-indolin-2-on-1-yl)-benzoic acid]
IC50 [1, 3]: < 100 nM
inhibition at 1 µM [2]: > 50%

Cc1cccc2c1/C(=C/c1c(Cl)cccc1Cl)C(=O)N2c1ccc(C(=O)O)cc1 [Example 5, (trans)-4-(3-(2,6-dichlorobenzylidene)-4-methylindolin-2-on-1-yl)-benzoic acid]
IC50 [1, 3]: < 100 nM

O=C(O)c1ccc(N2C(=O)/C(=C/c3c(Cl)cccc3Cl)c3c(F)cccc32)cc1O [Example 22B, (cis)-4-(3-(2,6-dichloro-benzylidene)-4-fluoro-indolin-2-on-1-yl)-2-hydroxy-benzoic acid]
IC50 [1, 3]: < 100 nM

CCc1cccc(Cl)c1/C=C1\C(=O)N(c2ccc(C(=O)O)c(O)c2)c2cccc(C)c21 [Example 37, (trans)-4-(3-(2-chloro-6-ethyl-benzylidene)-4-methylindolin-2-on-1-yl)-2-hydroxybenzolic acid]
IC50 [1, 3]: < 100 nM

Cc1cccc2c1/C(=C/c1c(Cl)cccc1C1CC1)C(=O)N2c1ccc(C(=O)O)c(Cl)c1 [Example 24, (trans)-4-(3-(2-chloro-6-cyclopropyl-benzylidene)-4-methylindolin-2-on-1-yl)-2-chloro-benzoic acid]
IC50 [1]: 100 to 1000 nM

Cc1cccc2c1/C(=C/c1c(Cl)cccc1C1CC1)C(=O)N2c1ccc(C(=O)O)c(O)c1 [Example 1, (trans)-4-(3-(2-chloro-6-cyclopropyl-benzylidene)-4-methylindolin-2-on-1-yl)-2-hydroxy benzoic acid]
IC50 [1, 3]: < 100 nM
inhibition at 1 µM [2]: > 50%

COc1cccc2c1/C(=C/c1c(Cl)cccc1Cl)C(=O)N2c1ccc(C(=O)O)c(O)c1 [Example 11, (trans)-4-(3-(2,6-dichloro-benzylidene)-4-methoxyindolin-2-on-1-yl)-2-hydroxybenzolic acid]
IC50 [1]: 100 to 1000 nM

Cc1cccc2c1/C(=C/c1c(Cl)cccc1C1CC1)C(=O)N2c1ccc(C(=O)O)cc1 [Example 2A, (trans)-4-(3-(2-chloro-6-cyclopropyl-benzylidene)-4-methylindolin-2-on-1-yl)-benzoic acid]
IC50 [1, 3]: < 100 nM
inhibition at 1 µM [2]: > 50%

O=C(O)c1ccc(N2C(=O)/C(=C/c3c(Cl)cccc3C3CC3)c3c(F)cccc32)cc1O [Example 21B, (cis)-4-(3-(2-chloro-6-cyclopropyl-benzylidene)-4-fluoro-indolin-2-on-1-yl)-2-hydroxy-benzoic acid]
IC50 [1]: 100 to 1000 nM

O=C(O)c1ccc(N2C(=O)/C(=C\c3c(Cl)cccc3C3CC3)c3c(F)cccc32)cc1O [Example 21A, (trans)-4-(3-(2-chloro-6-cyclopropyl-benzylidene)-4-fluoro-indolin-2-on-1-yl)-2-hydroxy-benzoic acid]
IC50 [1, 3]: < 100 nM

O=C(O)c1ccc(N2C(=O)/C(=C/c3c(F)cccc3F)c3c(F)cccc32)cc1 [Example 18B, (cis)-4-(3-(2,6-difluoro-benzylidene)-4-fluoro-indolin-2-on-1-yl)-benzoic acid]
IC50 [1]: 1000 to 10000 nM

Cc1cccc2c1/C(=C/c1c(Cl)cccc1C(C)C)C(=O)N2c1ccc(C(=O)O)c(O)c1 [Example 36, (trans)-4-(3-(2-chloro-6-isopropyl-benzylidene)-4-methylindolin-2-on-1-yl)-2-hydroxybenzolic acid]
IC50 [1, 3]: < 100 nM

Cc1cccc2c1/C(=C/c1c(Cl)cccc1C(F)(F)F)C(=O)N2c1ccc(C(=O)O)c(O)c1 [Example 6, (trans)-4-(3-(2-chloro-6-(trifluoromethyl)-benzylidene)-4-methylindolin-2-on-1-yl)-2-hydroxybenzoic acid]
IC50 [1, 3]: < 100 nM

O=C(O)c1ccc(N2C(=O)/C(=C/c3c(Cl)cccc3Cl)c3c(F)cccc32)cc1 [Example 15B, (cis)-4-(3-(2,6-dichloro-benzylidene)-4-fluoro-indolin-2-on-1-yl)-benzoic acid]
IC50 [1, 3]: < 100 nM
inhibition at 1 µM [2]: < 50%

COc1cccc2c1/C(=C/c1c(Cl)cccc1Cl)C(=O)N2c1ccc(C(=O)O)cc1 [Example 31, (trans)-4-(3-(2,6-dichloro-benzylidene)-4-methoxyindolin-2-on-1-yl)-benzoic acid]
IC50 [1]: 1000 to 10000 nM

O=C(O)c1ccc(N2C(=O)/C(=C\c3c(Cl)cccc3Cl)c3c(Cl)cccc32)cc1 [Example 23, (trans)-4-(3-(2,6-dichloro-benzylidene)-4-chloro-indolin-2-on-1-yl)-benzoic acid]
IC50 [1, 3]: < 100 nM

COc1cccc(Cl)c1/C=C1\C(=O)N(c2ccc(C(=O)O)c(O)c2)c2cccc(C)c21 [Example 3, (trans)-4-(3-(2-chloro-6-methoxy-benzylidene)-4-methylindolin-2-on-1-yl)-2-hydroxybenzoic acid]
IC50 [1, 3]: < 100 nM
inhibition at 1 µM [2]: > 50%

COc1cccc2c1/C(=C/c1c(Cl)cccc1C1CC1)C(=O)N2c1ccc(C(=O)O)cc1 [Example 30]
IC50 [1, 3]: < 100 nM

Cc1cccc2c1/C(=C\c1c(Cl)cccc1C1CC1)C(=O)N2c1ccc(C(=O)O)cc1 [Example 2B, (trans)-4-(3-(2-chloro-6-cyclopropyl-benzylidene)-4-methylindolin-2-on-1-yl)-benzoic acid]
IC50 [1]: 100 to 1000 nM

O=C(O)c1ccc(N2C(=O)/C(=C\c3c(F)cccc3F)c3c(F)cccc32)cc1 [Example 18A, (trans)-4-(3-(2,6-difluoro-benzylidene)-4-fluoro-indolin-2-on-1-yl)-benzoic acid]
IC50 [1]: 1000 to 10000 nM

Cc1cccc2c1/C(=C/c1c(F)cccc1Cl)C(=O)N2c1ccc(C(=O)O)c(O)c1 [Example 9]
IC50 [1, 3]: < 100 nM

COc1cccc2c1/C(=C/c1c(Cl)cccc1C1CC1)C(=O)N2c1ccc(C(=O)O)c(O)c1 [Example 8]
IC50 [1, 3]: < 100 nM

O=C(O)c1ccc(N2C(=O)/C(=C/c3c(F)cccc3Cl)c3c(F)cccc32)cc1 [Example 17B, (cis)-4-(3-(2-chloro-6-fluoro-benzylidene)-4-fluoro-indolin-2-on-1-yl)-benzoic acid]
IC50 [1]: 100 to 1000 nM

Cc1cccc(Cl)c1/C=C1\C(=O)N(c2ccc(C(=O)O)c(O)c2)c2cccc(C)c21 [Example 10, (trans)-4-(3-(2-chloro-6-methyl-benzylidene)-4-methylindolin-2-on-1-yl)-2-hydroxybenzoic acid]
IC50 [1, 3]: < 100 nM
inhibition at 1 µM [2]: > 50%

— US10322108B2, “N-benzoate group substituted benzopyrroline-2-one derivative and use thereof” (BEIJING HANMI PHARMACEUTICAL CO., LTD., priority 2015, dated 2019)
